Measurements: paper PMC6138628, “Enhanced uptake of gH625 by blood brain barrier compared to liver in vivo: characterization of the mechanism by an in vitro model and implications for delivery” (Scientific Reports, 2018)
Residues, ends and D or L forms follow the SMILES beside them.

Key:
[1] = Circular dichroism spectroscopy; assay type: physicochemical; details: CD, peptide 8 µM, P/L 0.08; for Helix content: [θ]222, according to Chakrabartty et al., lipid 100 µM, 5 mM phosphate buffer, room temperature
Method: The samples were vortexed and lyophilized overnight.
CD spectra were recorded at room temperature on a Jasco J-715 spectropolarimeter in a 0.1 cm quartz cell. The spectra are an average of 3 consecutive scans from 260 to 190 nm, recorded with a band width of 3 nm, a time constant of 16 s, and a scan rate of 10 nm/min. Spectra were recorded and corrected for the blank. Mean residue ellipticities (MRE) were calculated as MRE = Obsd/lcn (Obsd is the ellipticity measured in millidegrees, l is the path length of the cell in cm, c is the peptide concentration in mol/l, and n is the number of amino acid residues in the peptide). A solution of 8 µM of peptide with SUVs, was prepared as previously described. […] The percentage of helix was calculated from measurements of their mean residue ellipticity at 222 nm[44]. We used [ϑ]222 values of 0 and −40.000(1–2.5/n) deg cm^2 dmol^−1 per amino acid residue for 0% and 100% helicity; n is the number of amino acid residues. The ratio of the ellipticities at 222 and 208 nm were used to discriminate between monomeric and oligomeric states of helices. The experiment was performed before and after centrifugation to remove eventual precipitated peptides from solution.

[2] = Tryptophan fluorescence, binding isotherm and partition coefficient; assay type: physicochemical; details: peptide 4 µM, λex 295 nm
Method: Emission spectra of the tryptophan contained in the peptide (4 µM) in the absence or presence of target vesicles were recorded between 300 and 400 nm with λex 295 nm in order to determine the presence of the peptide inside the membrane. To establish the strength of peptide-lipid interaction, LUVs were added to the peptide solution (4 µM) and the fluorescence intensity was recorded as a function of the lipid/peptide molar ratio (L/P), in three to four separate experiments. The results were corrected for the dilution factor. We used an L/P ratio of 200:1. […] F∞ was obtained by extrapolation of a double reciprocal plot of the total peptide fluorescence vs the total lipid concentration in the outer leaflet. The fraction of membrane-bound peptide, fb, was determined by fb = (F − F0)/(F∞ − F0), where F represents the fluorescence of peptide after the addition of the vesicles and F0 represents the fluorescence of the unbound peptide. fb allowed us to calculate the equilibrium concentration of the free peptide in the solution, Cf, and the extent of peptide binding Xb. […]
The presence of a tryptophan residue in the middle of the sequence of gH625, allowed the evaluation of the degree of peptide penetration into liposomes of different composition. In particular, we compared the fluorescence emission spectra in vesicles mimicking the BBB and the liver with that in buffer. […]

[3] = Tryptophan quenching by acrylamide in buffer; assay type: physicochemical; details: no LUVs, peptide 4 µM, acrylamide up to 0.2 M, λex 295 nm, λem 340 nm
Method: A solution containing 4 µM of gH625 in the absence or presence of LUVs at a peptide/lipid molar ratio of 1/200, was titrated with the water-soluble quencher acrylamide (4 M mother solution). The maximal concentration of acrylamide in the samples is 0.2 M. Fluorescence was measured with λex 295 nm and λem 340 nm[43]. The data were analysed with the Stern-Volmer equation[43], F0/F = 1 + Ksv [Q], where F0 and F represent the fluorescence intensities in the absence and the presence of the quencher (Q), respectively. The Ksv is the Stern-Volmer quenching constant, and is correlated to the accessibility of the tryptophan residue to acrylamide. […] Ksv is thus determined by the amount of non-lipid-associated free peptide as well as the peptide fraction located on the surface of the bilayer.
The observed changes in the tryptophan emission upon binding to lipid vesicles indicate gH625 insertion into the hydrophobic region of the bilayers. We determined the accessibility of the tryptophan residues of membrane bound peptides towards acrylamide, a neutral, water-soluble quencher, which is unable to penetrate into the hydrophobic core of the lipid bilayer. In fact, tryptophan residues more deeply buried inside the membrane are less strongly quenched.

ANTS/DPX leakage assay = details: 0.1 mM lipid, 5 mM Hepes, 100 mM NaCl, pH 7.4, 37 °C, data not shown
Method: The ANTS/DPX experiment was used to evaluate leakage of encapsulated dyes induced by the peptide. The peptide in 5 mM Hepes and 100 mM NaCl at pH 7.4 was added to the stirred vesicle suspension (0.1 mM lipid) containing ANTS and DPX at 37 °C. Details of this assay have been previously reported.

[4] = parameters: method as in PMID 25792823; details: after 3.5 h of incubation in serum; cited from earlier work

With `CC[C@H](C)[C@H](NC(=O)[C@H](CC(C)C)NC(=O)[C@H](C)NC(=O)[C@H](CC(N)=O)NC(=O)[C@H](Cc1ccc(O)cc1)NC(=O)[C@H](Cc1c[nH]cn1)NC(=O)[C@H](C)NC(=O)[C@H](Cc1c[nH]c2ccccc12)NC(=O)[C@H](CCCNC(=N)N)NC(=O)[C@@H](NC(=O)[C@H](CC(C)C)NC(=O)[C@@H](NC(=O)[C@H](CO)NC(=O)[C@H](C)NC(=O)[C@H](CC(C)C)NC(=O)CNC(=O)[C@@H](N)Cc1c[nH]cn1)[C@@H](C)O)[C@@H](C)O)C(=O)N[C@@H](CCCNC(=N)N)C(=O)N[C@@H](C)C(=O)N[C@@H](Cc1ccccc1)C(N)=O` [gH625] (H-HGLASTLTRWAHYNALIRAF-NH2) the Helix content ([1]; BBB mimicking SUVs) was 58%, the Helix content ([1]; liver mimicking SUVs) was 40% and the “Ratio θ222/θ208 (monomeric < 0.8, oligomeric > 1.0)” value ([1]; BBB mimicking SUVs) was “approximately 0.68”. The “Ratio θ222/θ208 (monomeric < 0.8, oligomeric > 1.0)” value ([1]; liver mimicking SUVs) was ~0.45, the “Tryptophan fluorescence emission (intensity increase, blue shift): penetration into bilayer” value ([2]; BBB mimicking LUVs vs buffer) was “capable of penetrating both lipid bilayers” and the “Tryptophan fluorescence emission (intensity increase, blue shift): penetration into bilayer” value ([2]; liver mimicking LUVs vs buffer) was “capable of penetrating both lipid bilayers”. The “Stern-Volmer quenching constant (Ksv)” value [3] was 10.21 ± 0.15 M⁻¹, the “Leakage of encapsulated dyes (ANTS/DPX)” value (ANTS/DPX leakage assay; BBB mimicking LUVs) was “did not present any leakage” and the “Leakage of encapsulated dyes (ANTS/DPX)” value (ANTS/DPX leakage assay; liver mimicking LUVs) was “did not present any leakage”. For the same molecule, the “Serum stability, intact peptide” value [4] was “significant amount of intact peptide”.
